# Data taken from ChEMBL document CHEMBL4619780, “Structure-Activity Relationship Studies of Retro-1 Analogues against Shiga Toxin” (J Med Chem, 2020).
# pEC50: −log10 of the molar value.
# Experiment: cells
# Format: cell-based
# Conditions: Escherichia coli, HeLa
row,Compound,pEC50
1,Cc1ccc(C2Nc3ccccc3C(=O)N2c2ccccc2)s1 (configuration not stated),4.56
2,CCC(=O)N1CC(=O)Nc2ccc(Br)cc2C1c1ccccc1 (racemic),5.21

# Experiment: cells
# Format: cell-based
# Conditions: Escherichia coli, HeLa
# Remark: another data set of the same source
row,Compound,pEC50
1,CC[C@@H](C(=O)[C@@H](C)[C@@H](O)[C@H](C)CCc1ccc(C)c(O)c1C(=O)O)[C@H]1O[C@](CC)([C@H]2CC[C@](O)(CC)[C@H](C)O2)C[C@@H]1C [LASALOCID],5.70

# Experiment: cells
# Format: cell-based
# Conditions: Escherichia coli, HeLa
# Remark: another data set of the same source
row,Compound,pEC50
1,CC1CCC(N2CC(=O)Nc3ccc(Br)cc3C2c2ccccc2)C1 (mixture of isomers),5.89
2,O=C1CN(C2CCCC2)C(c2ccccc2)c2cc(F)ccc2N1 (configuration not stated),5.64
3,CCCC(=O)N1CC(=O)Nc2ccc(Br)cc2C1c1ccccc1 (configuration not stated),4.96
4,O=C1CN(C2CCCCC2)C(c2ccccc2)c2cc(Br)ccc2N1 (configuration not stated),5.33
5,O=C1CN(C2CCCC2)C(c2ccccc2)c2cc(Br)ccc2N1 (configuration not stated),6.22
6,CCN1CC(=O)Nc2ccc(Br)cc2C1c1ccccc1 (configuration not stated),5.06
7,O=C1CN(C2CCCC2)C(c2ccccc2)c2cc(I)ccc2N1 (racemic),6.55
8,O=C1CN(C2CCCC2)[C@H](c2ccccc2)c2cc(I)ccc2N1,7.05
9,CCCN1CC(=O)Nc2ccc(Br)cc2C1c1ccccc1F (configuration not stated),5.41
10,CC(C1CC1)N1CC(=O)Nc2ccc(Br)cc2C1c1ccccc1 (mixture of isomers),5.29
11,CC1CCCC1N1CC(=O)Nc2ccc(Br)cc2C1c1ccccc1 (mixture of isomers),5.41
12,CCCN1CC(=O)Nc2ccc(Br)cc2C1c1ccccc1 (configuration not stated),5.40
13,CCCN1CC(=O)Nc2ccc(N=[N+]=[N-])cc2C1c1ccccc1 (configuration not stated),4.96
14,CCCN1CC(=O)Nc2ccc(I)cc2C1c1ccccc1 (configuration not stated),5.70
15,CCCN1CC(=O)Nc2ccc(Cl)cc2C1c1ccccc1 (configuration not stated),4.89
16,CCCN1CC(=O)Nc2ccc(Br)cc2C1c1ccc(F)cc1F (configuration not stated),4.89
17,C#CCCN1CC(=O)Nc2ccc(Br)cc2C1c1ccccc1 (configuration not stated),5.19
18,O=C1CN(C2CCCC2)C(c2ccccc2)c2ccccc2N1 (configuration not stated),5.21
19,O=C1CN(C2CCCC2)C(c2ccccc2)c2cc(Cl)ccc2N1 (configuration not stated),6.07

# Experiment: Inhibition of Escherichia coli shiga toxin
# Conditions: not given
row,Compound,pEC50
1,O=[N+]([O-])c1ccc(CSc2ncnc3c2ncn3[C@@H]2O[C@H](CO)[C@@H](O)[C@H]2O)cc1 [NITROBENZYLMERCAPTOPURINE RIBONUCLEOSIDE],4.00 to 4.60
2,CC/C(=C(\c1ccccc1)c1ccc(OCCN(C)C)cc1)c1ccccc1 [TAMOXIFEN],5.00 to 5.70
3,CC1(C)CC(/C=C/c2ccccc2)=Nc2ccccc2N1,4.30
4,Cc1cccc(C)c1Nc1c(-c2cc(Br)ccc2O)nc2[nH]cnn12,4.60

# Experiment: cells
# Format: cell-based
# Conditions: Escherichia coli, HeLa
# Remark: another data set of the same source
row,Compound,pEC50
1,C[C@H]1CCC/C=C/[C@@H]2C[C@H](O)C[C@H]2[C@H](O)/C=C/C(=O)O1 [BREFELDIN A],5.30
